Assay results as given in patent US20240174690A1, “ANNULATED 2-AMINO-3-CYANO THIOPHENES AND DERIVATIVES FOR THE TREATMENT OF CANCER” (BOEHRINGER INGELHEIM INTERNATIONAL GMBH, priority 2021, published 2024).
Where two headings read alike, the source gives them in different places.

Assays:
[1] = tested on: AsPC-1 cells; experiment: AsPC-1 CTG proliferation assay (120 h) (pancreatic cancer, G12D); type: cell-based
Procedure, shortened: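 CellTiter-Glo luminescence, normalised to DMSO wells, measured viability after 120 h compound exposure. Cells were AsPC-1 pancreatic cancer (G12D) plated at 2000 per well in RPMI/10% FCS the day before dosing. IC50 derived by four-parameter regression.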

[2] = target: KRAS (G12C)::SOS1 (Homo sapiens (Human), UniProt P01116, C118S/C51S/C80L/G12C); experiment: KRAS::SOS1 AlphaScreen binding assay, KRAS G12C
Procedure, shortened: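 KRAS 1-169 (biotinylated avi-tag) with GST-SOS1 564-1049 and 10 µM GDP in PBS/0.1% BSA/0.05% Tween 20: WT and G13D 10 nM each with 10 nM SOS1; G12D 10 nM and G12C 7.5 nM with 5 nM SOS1. After 30 min, glutathione acceptor/streptavidin donor beads were added for 60 min at RT in the dark, then AlphaScreen read; 4-parameter IC50.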

Sequence of KRAS (G12C)::SOS1 (P01116 other isoform, or with tags, fused parts or gaps G12C/C51S/C80L/C118S): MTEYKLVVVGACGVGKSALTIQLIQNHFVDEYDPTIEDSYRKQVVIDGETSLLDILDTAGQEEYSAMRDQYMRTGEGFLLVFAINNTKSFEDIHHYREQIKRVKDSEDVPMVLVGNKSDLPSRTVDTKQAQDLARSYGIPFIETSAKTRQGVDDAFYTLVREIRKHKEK

| IC50 ([1]; Homo sapiens, ASPC1) [nM] | IC50 [2] [nM] | SMILES | IC50 [1] [nM] |
| --- | --- | --- | --- |
| 1550 | 7 | C[C@H](Oc1cc(N2CCNC[C@@]23CCOC3)nc(-c2onc3c2CCC[C@@]32CCCc3sc(N)c(C#N)c32)n1)[C@@H]1CCCN1C [I-13] | – |
| 3410 | 2 | C[C@H](Oc1cc(-n2cncc3ccnc2-3)nc(-c2onc3c2CCC[C@@]32CCCc3sc(N)c(C#N)c32)n1)[C@@H]1CCCN1C [I-14] | – |
| – | 299 | C[C@H]1CNCCCN1c1nc(-c2onc3c2CCC[C@@]32CCCc3sc(N)c(C#N)c32)cc(C(F)(F)F)n1 [I-15] | – |
| 9850 | 4 | CO[C@@H]1C[C@@H]([C@H](C)Oc2cc(-c3cnn(C)n3)nc(-c3onc4c3CCC[C@@]43CCCc4sc(N)c(C#N)c43)n2)N(C)C1 [I-17] | – |
| 7070 | 2 | C[C@H](Oc1cc(-n2cncn2)nc(-c2onc3c2CCC[C@@]32CCCc3sc(N)c(C#N)c32)n1)[C@@H]1CCCN1C [I-18] | – |
| 3000 | 2 | C[C@H](Oc1cc(N2Cc3cnn(C)c3C2)nc(-c2onc3c2CCC[C@@]32CCCc3sc(N)c(C#N)c32)n1)[C@@H]1CCCN1C [I-19] | – |
| 1370 | 2 | C[C@H](Oc1cc(-n2cc(-c3cncs3)nn2)nc(-c2noc3c2CCC[C@@]32CCCc3sc(N)c(C#N)c32)n1)[C@@H]1CCCN1C [II-125] | – |
| 10200 | 2 | C[C@H](Oc1cc(-n2cnc(C(=O)N(C)C)c2)nc(-c2noc3c2CCC[C@@]32CCCc3sc(N)c(C#N)c32)n1)[C@@H]1CCCN1C [II-126] | – |
| 2760 | 2 | C[C@H](Oc1cc(-c2ccn([C@H]3CCOC3)n2)nc(-c2noc3c2CCC[C@@]32CCCc3sc(N)c(C#N)c32)n1)[C@@H]1CCCN1C [II-127] | – |
| 2100 | 2 | C[C@H](Oc1cc(-c2ccn(Cc3ncco3)n2)nc(-c2noc3c2CCC[C@@]32CCCc3sc(N)c(C#N)c32)n1)[C@@H]1CCCN1C [II-128] | – |
| 2080 | 2 | C[C@H](Oc1cc(-c2ccn(C[C@H]3CCOC3)n2)nc(-c2noc3c2CCC[C@@]32CCCc3sc(N)c(C#N)c32)n1)[C@@H]1CCCN1C [II-129] | – |
| 3520 | – | C[C@H](Oc1cc(-n2nccc2-c2ccncc2)nc(-c2noc3c2CCC[C@@]32CCCc3sc(N)c(C#N)c32)n1)[C@@H]1CCCN1C [II-131] | – |
| 5110 | 2 | C[C@H](Oc1cc(-n2cc(C(=O)N(C)C)nn2)nc(-c2noc3c2CCC[C@@]32CCCc3sc(N)c(C#N)c32)n1)[C@@H]1CCCN1C [II-132] | – |
| 9670 | 2 | C[C@H](O)Cn1ncc(-c2cc(O[C@@H](C)[C@@H]3CCCN3C)nc(-c3noc4c3CCC[C@@]43CCCc4sc(N)c(C#N)c43)n2)n1 [II-134] | – |
| 21600 | 5 | C[C@H]1CNCCCN1c1cc(-c2ccn(C)n2)nc(-c2noc3c2CCC[C@@]32CCCc3sc(N)c(C#N)c32)n1 [II-140] | – |
| 10100 | 5 | C[C@H]1CNCCCN1c1cc(-n2ccnc2)nc(-c2noc3c2CCC[C@@]32CCCc3sc(N)c(C#N)c32)n1 [II-142] | – |
| 1890 | 2 | COc1c(O[C@@H](C)[C@@H]2CCCN2C)nc(-c2noc3c2CCC[C@@]32CCCc3sc(N)c(C#N)c32)nc1-n1ccc(C(N)=O)n1 [II-159] | – |
| 1600 | 5 | C[C@@H]1CN(c2cc(O[C@@H](C)[C@@H]3CCCN3C)nc(-c3noc4c3CCC[C@@]43CCCc4sc(N)c(C#N)c43)n2)CCN1 [II-161] | – |
| 935 | 2 | C[C@H](Oc1cc([C@H]2CCNC2)nc(-c2noc3c2CCC[C@@]32CCCc3sc(N)c(C#N)c32)n1)[C@@H]1CCCN1C [II-163] | – |
| 1280 | 8 | CC(C)[C@@H]1CN(c2cc(O[C@@H](C)[C@@H]3CCCN3C)nc(-c3noc4c3CCC[C@@]43CCCc4sc(N)c(C#N)c43)n2)CCN1 [II-166] | – |
| 4230 | 5 | C[C@H](Oc1cc(N2C[C@@H]3[C@@H](N)[C@@H]3C2)nc(-c2noc3c2CCC[C@@]32CCCc3sc(N)c(C#N)c32)n1)[C@@H]1CCCN1C [II-167] | – |
| 3590 | 3 | CC(C)N1CCCN(c2cc(-c3ccn(C)n3)nc(-c3noc4c3CCC[C@@]43CCCc4sc(N)c(C#N)c43)n2)[C@@H](C)C1 [II-170] | – |
| 814 | 2 | CC(=O)N1CCN(c2cc(O[C@@H](C)[C@@H]3CCCN3C)nc(-c3noc4c3CCC[C@@]43CCCc4sc(N)c(C#N)c43)n2)CC12CC2 [II-178] | – |

| IC50 ([1]; Homo sapiens, ASPC1) [nM] | IC50 [2] [nM] | SMILES | IC50 [1] [nM] |
| --- | --- | --- | --- |
| 188 | 1 | CC(C)NC(=O)Cc1ccn(-c2cc(O[C@@H](C)[C@@H]3CCCN3C)nc(-c3noc4c3CCC[C@@]43CCCc4sc(N)c(C#N)c43)n2)n1 [II-182] | – |
| 162 | 2 | CO[C@H]1CCN(C)[C@@H]1[C@H](C)Oc1cc(-n2ccc(CC(=O)NC(C)C)n2)nc(-c2noc3c2CCC[C@@]32CCCc3sc(N)c(C#N)c32)n1 [II-183] | – |
| 8 | 2 | CO[C@H]1CCN(C)[C@@H]1[C@H](C)Oc1cc(N2CCNC3(CC3)C2)nc(-c2noc3c2CCC[C@@]32CCCc3sc(N)c(C#N)c32)n1 [II-184] | – |
| 1150 | 2 | C[C@H](Oc1cc(-n2ccc(C3(O)COC3)n2)nc(-c2noc3c2CCC[C@@]32CCCc3sc(N)c(C#N)c32)n1)[C@@H]1CCCN1C [II-189] | – |
| 425 | 2 | C[C@H](NC(=O)c1ccn(-c2cc(O[C@@H](C)[C@@H]3CCCN3C)nc(-c3noc4c3CCC[C@@]43CCCc4sc(N)c(C#N)c43)n2)n1)c1ccccn1 [II-191] | – |
| 411 | 1 | C[C@H](Oc1cc(-n2ccc(C(=O)N(C)C3COC3)n2)nc(-c2noc3c2CCC[C@@]32CCCc3sc(N)c(C#N)c32)n1)[C@@H]1CCCN1C [II-194] | – |
| 282 | 1 | COCCNC(=O)c1ccn(-c2cc(O[C@@H](C)[C@@H]3CCCN3C)nc(-c3noc4c3CCC[C@@]43CCCc4sc(N)c(C#N)c43)n2)n1 [II-195] | – |
| 248 | 1 | CO[C@H]1CCN(C)[C@@H]1[C@H](C)Oc1cc(-n2ccc(C(=O)N[C@@H](C)c3ccccn3)n2)nc(-c2noc3c2CCC[C@@]32CCCc3sc(N)c(C#N)c32)n1 [II-196] | – |
| 226 | 1 | CO[C@H]1CCN(C)[C@@H]1[C@H](C)Oc1cc(-n2ccc(C(=O)N[C@@H]3CCOC3)n2)nc(-c2noc3c2CCC[C@@]32CCCc3sc(N)c(C#N)c32)n1 [II-197] | – |
| 143 | 1 | CO[C@H]1CCN(C)[C@@H]1[C@H](C)Oc1cc(-n2ccc(C(=O)N[C@H]3CCOC3)n2)nc(-c2noc3c2CCC[C@@]32CCCc3sc(N)c(C#N)c32)n1 [II-198] | – |
| 446 | 1 | CO[C@H]1CCN(C)[C@@H]1[C@H](C)Oc1cc(-n2ccc(C(=O)N(C)C3COC3)n2)nc(-c2noc3c2CCC[C@@]32CCCc3sc(N)c(C#N)c32)n1 [II-199] | – |
| 340 | 1 | COCCNC(=O)c1ccn(-c2cc(O[C@@H](C)[C@@H]3[C@@H](OC)CCN3C)nc(-c3noc4c3CCC[C@@]43CCCc4sc(N)c(C#N)c43)n2)n1 [II-200] | – |
| 651 | 1 | CO[C@H]1CCN(C)[C@@H]1[C@H](C)Oc1cc(-n2ccc(C(N)=O)n2)nc(-c2noc3c2CCC[C@@]32CCCc3sc(N)c(C#N)c32)n1 [II-201] | – |
| 380 | 1 | C[C@H](Oc1cc(-n2cc3ccn([C@H]4CCOC4)c(=O)c3n2)nc(-c2noc3c2CCC[C@@]32CCCc3sc(N)c(C#N)c32)n1)[C@@H]1CCCN1C [II-202] | – |
| 1310 | 2 | C[C@H](Oc1cc(-n2cc3ccn([C@@H](C)c4ccccn4)c(=O)c3n2)nc(-c2noc3c2CCC[C@@]32CCCc3sc(N)c(C#N)c32)n1)[C@@H]1CCCN1C [II-205] | – |
| 194 | 2 | C[C@H](Oc1cc(-n2cc3ccn(C4CCOCC4)c(=O)c3n2)nc(-c2noc3c2CCC[C@@]32CCCc3sc(N)c(C#N)c32)n1)[C@@H]1CCCN1C [II-206] | – |
| 82 | 6 | [2H]C([2H])([2H])N1C[C@H](F)C[C@H]1[C@H](C)Oc1cc(N2CCN(C([2H])([2H])[2H])C3(CC3)C2)nc(-c2noc3c2CCC[C@@]32CCCc3sc(N)c(C#N)c32)n1 [II-207] | – |
| 210 | 2 | C[C@H](Oc1cc(-n2ccc(-c3cn(C4CCOCC4)nn3)n2)nc(-c2noc3c2CCC[C@@]32CCCc3sc(N)c(C#N)c32)n1)[C@@H]1CCCN1C [II-210] | – |
| 297 | 2 | C[C@H](Oc1cc(-n2ccc(-c3cn([C@@H]4CCOC4)nn3)n2)nc(-c2noc3c2CCC[C@@]32CCCc3sc(N)c(C#N)c32)n1)[C@@H]1CCCN1C [II-211] | – |
| 170 | 2 | C[C@H](Oc1cc(-n2ccc(-c3cn([C@H]4CCOC4)nn3)n2)nc(-c2noc3c2CCC[C@@]32CCCc3sc(N)c(C#N)c32)n1)[C@@H]1CCCN1C [II-212] | – |
| 275 | 2 | C[C@H](Oc1cc(-n2ccc(-c3cn(CC4(C)COC4)nn3)n2)nc(-c2noc3c2CCC[C@@]32CCCc3sc(N)c(C#N)c32)n1)[C@@H]1CCCN1C [II-213] | – |
| 3520 | 9 | CNC1CCN(c2cc(O[C@@H](C)[C@@H]3CCCN3C)nc(-c3noc4c3CCC[C@@]43CCCc4sc(N)c(C#N)c43)n2)CC1 [II-214] | – |

| SMILES | IC50 ([1]; Homo sapiens, ASPC1) [nM] | IC50 [2] [nM] | IC50 [1] [nM] |
| --- | --- | --- | --- |
| C[C@H](Oc1cc(N2CC3COCC(C2)N3)nc(-c2noc3c2CCC[C@@]32CCCc3sc(N)c(C#N)c32)n1)[C@@H]1CCCN1C [II-160] | 3220 | 7 | – |
| C[C@H](Oc1cc(-n2ccc(C(=O)N[C@H]3CCOC3)n2)nc(-c2noc3c2CCC[C@@]32CCCc3sc(N)c(C#N)c32)n1)[C@@H]1CCCN1C [II-193] | – | 1 | 176 |
